Assays:
[1] = tested on: C. parapsilosis ATCC 22019; assay: Checkerboard MIC assay, FICI; format: cell-based, Candida parapsilosis
Text: (§1) The following assay was used to determine the minimum inhibitory concentration (MIC) and fractional inhibitory concentration index (FICI) for combinations of an antifungal agent and a glycopeptide antibacterial agent. This assay and methods for calculating FICI are well known in the art. See, for example, Eliopoulos, E. G. and R. Moellering, Jr. “Antimicrobial Combinations” in Antibiotics in Laboratory Medicine, edited by V. Lorian, 4th Ed., Williams & Wilkins, Baltimore, MD, pp. 330-396 (1996); […] et al., Antimicrobial Agents and Chemotherapy 47(4):1416-1418 (2003); or […] et al., Antimicrobial Agents and Chemotherapy 46(10):3323-3326 (2002). Procedures, protocols, supplies and equipment used in this assay follow the recommendations approved and published by the National Committee for Clinical Laboratory Standards (NCCLS), Wayne, Pa. as described in NCCLS 2003, “Reference Method for Broth Dilution Antimicrobial Susceptibility Tests for Bacteria that Grow Aerobically; Approved Standard” (NCCLS document M7-A6); NCCLS 2002, “Reference Method for Broth Dilution Antifungal Susceptibility Tests of Filamentous Fungi that Grow Aerobically; Approved Standard” (NCCLS document M38-A); and NCCLS 2002 “Reference Method for Broth Dilution Antifungal Susceptibility Tests of Yeast; Approved Standards-2nd Edition” (NCCLS document M27-A2). Using a checkerboard method, a 2-fold dilution 100× final concentration master plate was prepared using a 96-well U-shape microtiter plate and an appropriate solvent. In the “checkerboard” method, a microtiter plate is divided into “columns” in which each well in the column contains the same amount of an antifungal agent (Compound A) being diluted along the x-axis, and “rows” in which each well in the row contains the same amount of a glycopeptide antibacterial agent (Compound B) being diluted on the y-axis. Also included is a row (or column) for Compound A or B alone. The dilutions used in the checkerboard are exponential (by powers of two). The result is that each well in the microtiter plate contains a unique concentration of the two compounds being tested. […] After mixing, 100 μL of 2× drug combinations were distributed into 96-well microtiter plates. […] Compound A was not added to Column 12, so Column 12 contained only Compound B. Compound B was diluted from row A starting at 6,400 μg/mL down to row G (100 μg/mL). Wells in Row A contained a final concentration of 64 μg/mL of Compound B; Row B contained a final concentration of 32 μg/mL of Compound B; Row C contained a final concentration of 16 μg/mL of Compound B; etc. Compound B was not added to Row H, so Row H only contained Compound A. […] The MIC of the glycopeptide antibacterial agent determined from this experiment was used in FIC calculations. […] RPMI-1640 without sodium bicarbonate media (GIBCO-BRL, Carlsbad, Calif.), an enriched media formulated for mammalian cells, was used according to the NCCLS guidelines for yeast and filamentous fungi susceptibility testing. The medium was buffered with 0.165 M 3-[N-Morpholino]propanesulfonic acid (MOPS) supplemented with 20 g/L glucose and pH adjusted to 7.0 with hydrogen chloride. Sabouraud Dextrose Agar ([…] plates, and Potato Dextrose Agar (PDA) plates were purchased from Hardy Diagnostic (Santa Maria, Calif.). Yeast cultures were started from -80° C. frozen stock streaked on […] incubated at 35° C. under aerobic conditions for 24 h. The […] in the refrigerator for up to 2 weeks and used regularly as a starting culture. About 24 to 48 h before each assay was run, yeasts were streaked on SDA plates for isolated colonies. To prepare the inoculum, from one to four colonies were resuspended in 5 mL of saline, and vortexed for 15 sec. […] For most yeast and mold cultures, the optical density (OD) of the suspension was adjusted to 0.11 in saline to provide 0.4×10^6 CFU/mL. However, for Fusarium moniliforme and Pseudallescheria boydii the OD of the suspension was adjusted to OD=0.17 to provide 0.4×10^6 CFU/mL. […]

C. krusei ATCC 32672 = assay: Checkerboard MIC assay, FICI; format: cell-based, Candida krusei
Text: as §1

C. tropicalis ATCC 750 = assay: Checkerboard MIC assay, FICI; format: cell-based, Candida tropicalis
Text: as §1

C. albicans ATCC 24433 = assay: Checkerboard MIC assay, FICI; format: cell-based, Candida albicans
Text: as §1

C. glabrata ATCC 200918 = assay: Checkerboard MIC assay, FICI; format: cell-based, Candida glabrata; conditions: combination with Compound 1
Text: The following assay was used to determine the minimum inhibitory concentration (MIC) and fractional inhibitory concentration index (FICI) for combinations of an antifungal agent and a glycopeptide antibacterial agent. This assay and methods for calculating FICI are well known in the art. See, for example, Eliopoulos, E. G. and R. Moellering, Jr. “Antimicrobial Combinations” in Antibiotics in Laboratory Medicine, edited by V. Lorian, 4th Ed., Williams & Wilkins, Baltimore, MD, pp. 330-396 (1996); […] et al., Antimicrobial Agents and Chemotherapy 47(4):1416-1418 (2003); or […] et al., Antimicrobial Agents and Chemotherapy 46(10):3323-3326 (2002). Procedures, protocols, supplies and equipment used in this assay follow the recommendations approved and published by the National Committee for Clinical Laboratory Standards (NCCLS), Wayne, Pa. as described in NCCLS 2003, “Reference Method for Broth Dilution Antimicrobial Susceptibility Tests for Bacteria that Grow Aerobically; Approved Standard” (NCCLS document M7-A6); NCCLS 2002, “Reference Method for Broth Dilution Antifungal Susceptibility Tests of Filamentous Fungi that Grow Aerobically; Approved Standard” (NCCLS document M38-A); and NCCLS 2002 “Reference Method for Broth Dilution Antifungal Susceptibility Tests of Yeast; Approved Standards-2nd Edition” (NCCLS document M27-A2). Using a checkerboard method, a 2-fold dilution 100× final concentration master plate was prepared using a 96-well U-shape microtiter plate and an appropriate solvent. In the “checkerboard” method, a microtiter plate is divided into “columns” in which each well in the column contains the same amount of an antifungal agent (Compound A) being diluted along the x-axis, and “rows” in which each well in the row contains the same amount of a glycopeptide antibacterial agent (Compound B) being diluted on the y-axis. Also included is a row (or column) for Compound A or B alone. The dilutions used in the checkerboard are exponential (by powers of two). The result is that each well in the microtiter plate contains a unique concentration of the two compounds being tested. […] After mixing, 100 μL of 2× drug combinations were distributed into 96-well microtiter plates. […] Compound A was not added to Column 12, so Column 12 contained only Compound B. Compound B was diluted from row A starting at 6,400 μg/mL down to row G (100 μg/mL). Wells in Row A contained a final concentration of 64 μg/mL of Compound B; Row B contained a final concentration of 32 μg/mL of Compound B; Row C contained a final concentration of 16 μg/mL of Compound B; etc. Compound B was not added to Row H, so Row H only contained Compound A. […] The MIC of the glycopeptide antibacterial agent determined from this experiment was used in FIC calculations. […]

various strains of fungi = assay: Assay for determining MIC and FICI, summary over strains; format: cell-based; conditions: combination with amphotericin B
Text: The following assay was used to determine the minimum inhibitory concentration (MIC) and fractional inhibitory concentration index (FICI) for combinations of an antifungal agent and a glycopeptide antibacterial agent. This assay and methods for calculating FICI are well known in the art. See, for example, Eliopoulos, E. G. and R. Moellering, Jr. “Antimicrobial Combinations” in Antibiotics in Laboratory Medicine, edited by V. Lorian, 4th Ed., Williams & Wilkins, Baltimore, MD, pp. 330-396 (1996); Shalit et al., Antimicrobial Agents and Chemotherapy 47(4):1416-1418 (2003); or Afeltra et al., Antimicrobial Agents and Chemotherapy 46(10):3323-3326 (2002).
Procedures, protocols, supplies and equipment used in this assay follow the recommendations approved and published by the National Committee for Clinical Laboratory Standards (NCCLS), Wayne, Pa. as described in NCCLS 2003, “Reference Method for Broth Dilution Antimicrobial Susceptibility Tests for Bacteria that Grow Aerobically; Approved Standard” (NCCLS document M7-A6); NCCLS 2002, “Reference Method for Broth Dilution Antifungal Susceptibility Tests of Filamentous Fungi that Grow Aerobically; Approved Standard” (NCCLS document M38-A); and NCCLS 2002 “Reference Method for Broth Dilution Antifungal Susceptibility Tests of Yeast; Approved Standards-2nd Edition” (NCCLS document M27-A2). […]

[2] = combination with Amphotericin B, C. parapsilosis 22019
[3] = combination with Amphotericin B, C. krusei 32672
[4] = combination with Amphotericin B, C. tropicalis 750
[5] = combination with Amphotericin B, C. albicans 24433
[6] = combination with Compound 1, C. parapsilosis ATCC 22019
[7] = combination with Compound 1, C. krusei ATCC 32672
[8] = combination with Compound 1, C. tropicalis ATCC 750
[9] = combination with Compound 1, C. albicans ATCC 24433

Row | Compound | FICI [1, 2] | FICI (C. krusei ATCC 32672; [3]) | FICI (C. tropicalis ATCC 750; [4]) | FICI (C. albicans ATCC 24433; [5]) | FICI [1, 6] | FICI (C. krusei ATCC 32672; [7]) | FICI (C. tropicalis ATCC 750; [8]) | FICI (C. glabrata ATCC 200918) | FICI (C. albicans ATCC 24433; [9]) | effect of the combination (various strains of fungi)
1 | CCCCCCCCCCNCCN[C@@]1(C)C[C@H](O[C@H]2[C@H](Oc3c4cc5cc3Oc3ccc(cc3Cl)[C@@H](O)[C@@H](NC(=O)[C@@H](CC(C)C)NC)C(=O)N[C@@H](CC(N)=O)C(=O)N[C@H]5C(=O)N[C@H]3C(=O)N[C@H](C(=O)N[C@H](C(=O)O)c5cc(O)c(CNCP(=O)(O)O)c(O)c5-c5cc3ccc5O)[C@H](O)c3ccc(c(Cl)c3)O4)O[C@H](CO)[C@@H](O)[C@@H]2O)O[C@@H](C)[C@H]1O [Compound 1, telavancin] | 0.31 | 0.31 | 0.31 | 0.31 |  |  |  |  |  | 
2 | OC(Cn1cncn1)(Cn1cncn1)c1ccc(F)cc1F [Fluconazole] |  |  |  |  | 2.00 | 2.00 | 2.00 | 2.00 | 2.00 | 
3 | CN[C@H](CC(C)C)C(=O)N[C@H]1C(=O)N[C@@H](CC(N)=O)C(=O)N[C@H]2C(=O)N[C@H]3C(=O)N[C@H](C(=O)N[C@H](C(=O)O)c4cc(O)cc(O)c4-c4cc3ccc4O)[C@H](O)c3ccc(c(Cl)c3)Oc3cc2cc(c3O[C@@H]2O[C@H](CO)[C@@H](O)[C@H](O)[C@H]2O[C@H]2C[C@](C)(N)[C@H](O)[C@H](C)O2)Oc2ccc(cc2Cl)[C@H]1O [Vancomycin] | 2.00 | 2.00 | 2.00 | 2.00 |  |  |  |  |  | not synergistic or additive
4 | Teicoplanin | 0.38 | 0.38 | 0.38 | 0.53 |  |  |  |  |  | 
5 | Clc1ccc(COC(Cn2ccnc2)c2ccc(Cl)cc2Cl)c(Cl)c1 (centres unmarked) [Miconazole, miconazole] |  |  |  |  | 2.00 |  | 2.00 |  | 2.00 | 
6 | C[C@@H](c1ncncc1F)[C@](O)(Cn1cncn1)c1ccc(F)cc1F [Voriconazole, voriconazole] |  |  |  |  |  | 1.13 |  | 1.13 |  | 

— patent publication US7521418B2, “Use of a polyene macrolide antifungal agent in combination with a glycopeptide antibacterial agent” (Theravance, Inc., priority 2003, dated 2009)
